The subject of assay [1] is MCF-7/DOX (MCF-7 cell line resistant to doxorubicin). The assay is described as follows: CCK-8 cytotoxicity, MCF-7/DOX. As to conditions: Homo sapiens, MCF7-DOX; 48 h, CCK-8, doxorubicin-resistant; read-out: IC50, Mean ± SE, MCF-7/DOX. In kind it is cell-based. How it is done:
(§1) Besides the high cytotoxicity, drug resistance is the other limiting factor of chemotherapeutics. In this study, the cytotoxicities of compound 14b towards five kinds of drug-resistant cancer cell lines were also evaluated. Except three kinds of cell lines that are resistant to three drugs commonly used in clinical practice, two kinds of cell lines that are resistant to MTAs were also evaluated.
(§2) A549 (non-small-cell-lung cancer cell line), Caski (human epithelial cervical cancer cell line), HepG2 (human liver carcinoma cell line), MCF-7 (human breast carcinoma cell line), C42B (human prostate cancer line C42B), L-02 (human normal hepatocytes), RWPE-1 (human prostate epithelial cells) and MCF-10A (human normal mammary epithelial cells) were obtained from National Collection of Authenticated Cell Cultures (Shanghai, China). […]
(§3) After 24 h, the medium containing different concentrations of tested compounds were added for another 48 h. […] The optical density was recorded with a microplate reader at 570 nm (Thermo Scientific, Varioskan LUX). All the experiments were repeated independently at least three times and the IC50 values were calculated […]
(§4) The fluorescence intensity enhancement (emission wavelength is 410 nm, excitation wavelength is 340 nm) was recorded every 60 s for 60 min in a multifunction microplate reader (Molecular Devices, Flex Station 3). […]

Another assay has as its system A549 cells. As to the kind of experiment: cell cycle analysis by flow cytometry (PI). The assay is classed as cell-based, human. The conditions noted are these: 24 h, control 14.92%. As for the experimental part:
Microtubules play an important role in maintaining the normal process of cell mitosis.
Figure 3 Compound 14b induced cell cycle arrest at the G2/M phase. (A) The PI-stained DNA content detected by flow cytometry. A549 cells were treated with or without compound 14b at concentrations of 10, 20 and 50 nM for 24 h; then, the cells were harvested for cell cycle analysis by flow cytometry. (B) Quantitative analysis of the percentage of cells in each cell cycle phase by CytExpert analysis software. The experiments were performed at least three times, and the results of the representative experiments are shown.
S Ⅳ. Biological evaluation methods
The cells grown in logarithmical phase were seeded in 96-well plates with the density of 5×10^3/well.
After 24 h, the medium containing different concentrations of tested compounds were added for another 48 h. Then, CCK-8 reagents were added to cells and continued to culture for 2 h. The optical density was recorded with a microplate reader at 570 nm (Thermo Scientific, Varioskan LUX). All the experiments were repeated independently at least three times and the IC50 values were calculated […]
S2. In vitro tubulin polymerization inhibition assay
The in vitro tubulin polymerization inhibition assay was conducted according to the manufacturer ’s instruction (cytoskeleton, cat. no. BK011P). Briefly, 5 μL of the tested compounds at the indicated concentrations which were prepared with the buffer solution (containing 80.0 mM piperazine-N,N-bis(2-ethanesulfonic acid) sequiso-dium salt (pH 6.9), 10.2% glycerol, 2.0 mM MgCl2, 1 mM GTP, and 0.5 mM EGTA) was added to the plate. After the mixture was warmed to 37 °C for 1 min, the reaction was initiated by the addition of 55 μL of the tubulin solution which was kept on ice in prior.
as §4
In general terms: In flow cytometry, cells or beads pass a laser one at a time.

Assay [2] has as its system five kinds of human cancer cell lines (A549, Caski, HepG2, C42B, MCF-7). The assay is described as follows: CCK-8 assay, panel of five human cancer cell lines. In kind it is cell-based. As to conditions: 48 h, read-out: IC50 values, range over five human cancer cell lines. A general note: Tetrazolium assays rely on reduction of a dye to a coloured formazan, in cell work by metabolically active cells.

The subject of assay [3] is HCT-8/VCR (HCT-8 cell line resistant to vincristine). The assay is described as follows: CCK-8 cytotoxicity, HCT-8/VCR. In kind it is cell-based. As to conditions: Homo sapiens, 48 h, CCK-8, vincristine-resistant, read-out: IC50, Mean ± SE, HCT-8/VCR. As for the experimental part: as §1, §2, §3
For assay [4], the system named is A2780 (human ovarian cancer cell line). As to the kind of experiment: CCK-8 cytotoxicity, A2780. The assay is classed as cell-based. As to conditions: 48 h, read-out: IC50, Mean ± SE, A2780. As for the experimental part:
as §1, §2, §3

The subject of assay [5] is HCT-8 (human ileocecum carcinoma cell line). As to the kind of experiment: CCK-8 cytotoxicity, HCT-8. In kind it is cell-based. As to conditions: 48 h, read-out: IC50, Mean ± SE, HCT-8. How it is done:
as §1, §2, §3

We go through one compound from paper PMC9921564, “Novel Indole-Containing Hybrids Derived from Millepachine: Synthesis, Biological Evaluation and Antitumor Mechanism Study” (Molecules, 2023).

With `COc1ccc(C(=O)c2ccc3c(ccn3C)c2)c2c1C=CC(C)(C)O2` [compound 14b, (5-methoxy-2,2-dimethyl-2H-chromen-8-yl)(1-methyl-1H-indol-5-yl)methanone], the IC50 in assay [1] is 0.051 ± 0.024 µM; in assay [2], 0.022 to 0.074 µM; in assay [3] it was 0.122 ± 0.036 µM; in assay [4], 0.036 ± 0.004 µM; in assay [5], 0.089 ± 0.015 µM. Besides, the “percentage of cells in G2/M” value in the assay on A549 cells (A549, 10 nM) was 26.88%; in the assay with A549 cells (A549, 20 nM), 35.02%; in the assay on A549 cells (A549, 50 nM), 52.67%.
